SMILES strings stand for the structures. Read-outs that look alike come from different tables or passages of the source.

These results are taken from article PMC8746858 (Molecules, 2021).

The nature of data set [1]: Solubility in typical solvents, modified Vogel method. The conditions noted are these: 25 °C; for Solubility in Water (63.1): ET(30) in parentheses.
Text: For this purpose, dimethyl sulfoxide, ethanol, chloroform, ethyl acetate, diethyl ether, toluene, and n-hexane were used as solvents.
A short description of data set [2]: Solubility in water, HPLC of saturated solutions. Conditions: 25 °C; g of compound per dm^3. Here is the method:
Then, the obtained saturated solutions were diluted 100 times and analyzed. […] A mixture of 50% acetonitrile and 50% water was used as the mobile phase. The flow rate was 1 cm^3·min^−1. The column temperature was 30 °C. A Luna® Omega 3 µm Polar C18 100 Å column with dimensions of 150 × 4.6 mm was used. The injection volume for these samples was 50 mm^3. Each measurement was performed in triplicate, and the results were averaged.

The test system of data set [3] is IL-6. Description: IL-6 ELISA in supernatant of LPS-stimulated HaCaT cells. The conditions noted are these: 12 h pretreatment then LPS 12 h. The class given is cell-based, human. As to the method:
HaCaT cells were seeded in a 24-well plate at a density of 5 × 10^4 cells/well and maintained in DMEM high glucose with 10% FBS until an 80% confluent monolayer was reached. […] Control experiments with LPS-treated cells only were conducted. Controls with cells treated with neither compounds nor LPS were also performed. After that, the cell culture supernatant was collected, and the IL-6 cytokine was measured using an ELISA kit.

The subject of data set [4] is human keratinocytes (HaCaT cells). Kind of data set: MTT viability assay. The conditions noted are these: for Viability of HaCaT after 48 h Treatment with 0.4 mM IL or SA: calculated as percentage of medium control, in %; for IC50: HaCaT, 24 h, MTT. As to the method: (§1) Finally, control experiments with non-treated cells were performed.
We applied an assay based on the reduction of methyl thiazol tetrazolium bromide (MTT) to assess the effect of the compounds on the viability of HaCaT cells. […] After that, the cells were lysed with a solution of DMSO:ethanol (1:1 v/v). The absorbance of the reduced formazan dye product was read at 560 nm in a microplate reader (Biosan). The results were calculated for each sample concentration as a percentage of medium control. The values are presented as mean ± standard deviation of three independent experiments.

Data set [5] relates to fibroblasts (NIH/3T3 cells). Description: cells. Conditions: NIH/3T3, 24 h, neutral red uptake. Here is the method:
as §1
The effect of the compounds on the viability of murine 3T3 fibroblasts was estimated using NRU assay. After the incubation time (24 h) cells, media were removed, then to each well we added 100 µL of medium containing neutral red (50 µg/mL). […] The plates were shaken for 10 min at room temperature. Then, the absorption at 540 nm was measured using a microplate reader (Biosan). The results were calculated for each sample concentration as a percentage of medium control. The values are presented as mean ± standard deviation of three independent experiments.

For data set [6] the following is noted: TG, air atmosphere, 10 °C·min^−1.

As to `CCOC(=O)[C@@H](N)Cc1ccccc1.O=C(O)c1ccccc1O` [[PheOEt][SA], L-phenylalanine ethyl ester salicylate], in data set [1], the “Solubility in Chloroform (39.1)” value is “+ (soluble >100 mg·cm^−3)”, the “Solubility in DMSO (45.1)” value was “+ (soluble >100 mg·cm^−3)”, the “Solubility in Diethyl ether (34.5)” value is on record as “+ (soluble >100 mg·cm^−3)” and the “Solubility in Ethanol (51.9)” value is reported as “+/− (partially soluble 33–100 mg·cm^−3)”. Also, in data set [1], the “Solubility in Ethyl Acetate (38.1)” value was “+/− (partially soluble 33–100 mg·cm^−3)”, the “Solubility in Toluene (33.9)” value is listed as “− (insoluble < 33 mg·cm^−3)”, the “Solubility in n-Hexane (31.0)” value is on record as “− (insoluble < 33 mg·cm^−3)” and the “Solubility in Water (63.1)” value is “− (insoluble < 33 mg·cm^−3)”. The “Solubility in Water at 25 °C” value in data set [2] came to 9.732 ± 0.010 g·dm^−3. For the same molecule, the “Level of IL-6 in LPS-stimulated HaCaT” value in data set [3] (the two tested concentrations (1 and 10 µM)) is listed as “comparable to those produced by 1 µM SA”. In addition, in data set [4], the “Viability of HaCaT after 48 h Treatment with 0.4 mM IL or SA” value (shortened to “Viability of HaCaT after 48 h Treatment”) is 105 ± 4 and the IC50 came to 2200 ± 150 µg/mL. In data set [4] (read-out: IC50 (in mM)), the concentration for half-maximal inhibition (IC50) is approximately 6.6 mM. The same molecule returned an IC50 in data set [5] of 1062 ± 15 µg/mL. Also, in data set [5] (read-out: IC50 (in mM)), the IC50 is approximately 3.2 mM. In addition, the “Tonset, the onset of the thermal degradation” value (shortened to “Tonset, the onset”) in data set [6] was 181.1 °C.

For the molecule `CCCOC(=O)[C@@H](N)C(C)C.O=C(O)c1ccccc1O` [[ValOPr][SA], L-valine propyl ester salicylate], in data set [1], the “Solubility in Chloroform (39.1)” value was “+ (soluble >100 mg·cm^−3)”, the “Solubility in DMSO (45.1)” value is given as “+ (soluble >100 mg·cm^−3)”, the “Solubility in Diethyl ether (34.5)” value is given as “+ (soluble >100 mg·cm^−3)” and the “Solubility in Ethanol (51.9)” value is reported as “+ (soluble >100 mg·cm^−3)”. Besides, in data set [1], the “Solubility in Ethyl Acetate (38.1)” value is “+ (soluble >100 mg·cm^−3)”, the “Solubility in Toluene (33.9)” value was “+ (soluble >100 mg·cm^−3)”, the “Solubility in n-Hexane (31.0)” value is on record as “− (insoluble < 33 mg·cm^−3)” and the “Solubility in Water (63.1)” value is “+/− (partially soluble 33–100 mg·cm^−3)”. For the same molecule, the “Solubility in Water at 25 °C” value in data set [2] was found to be 21.789 ± 0.024 g·dm^−3. Moreover, in data set [4], the “Viability of HaCaT after 48 h Treatment” value is on record as 74 ± 2 and the IC50 came out at 500 ± 50 µg/mL. In addition, the IC50 in data set [4] (read-out: IC50 (in mM)) is approximately 1.8 mM. This molecule registered an IC50 in data set [5] of 1310 ± 17 µg/mL. Besides, in data set [6], the “Tonset, the onset” value turned out to be 177.9 °C.

Turning to `CCCCOC(=O)[C@@H](N)C(C)C.O=C(O)c1ccccc1O` [[ValOBu][SA], L-valine butyl ester salicylate], in data set [1], the “Solubility in Chloroform (39.1)” value is “+ (soluble >100 mg·cm^−3)”, the “Solubility in DMSO (45.1)” value is reported as “+ (soluble >100 mg·cm^−3)”, the “Solubility in Diethyl ether (34.5)” value was “+ (soluble >100 mg·cm^−3)” and the “Solubility in Ethanol (51.9)” value is recorded as “+/− (partially soluble 33–100 mg·cm^−3)”. Also, in data set [1], the “Solubility in Ethyl Acetate (38.1)” value was “+ (soluble >100 mg·cm^−3)”, the “Solubility in Toluene (33.9)” value is “+ (soluble >100 mg·cm^−3)”, the “Solubility in n-Hexane (31.0)” value is recorded as “− (insoluble < 33 mg·cm^−3)” and the “Solubility in Water (63.1)” value is “+/− (partially soluble 33–100 mg·cm^−3)”. For the same molecule, in data set [2], the “Solubility in Water at 25 °C” value is 14.490 ± 0.014 g·dm^−3. In addition, in data set [4], the “Viability of HaCaT after 48 h Treatment” value is listed as 74 ± 1 and the half-inhibitory concentration (IC50) came out at 600 ± 200 µg/mL. Further, the IC50 in data set [4] (read-out: IC50 (in mM)) is approximately 1.9 mM. In data set [5], this molecule returned an IC50 of 309 ± 9 µg/mL. Further, the IC50 in data set [5] (read-out: IC50 (in mM)) is approximately 1 mM. The “Tonset, the onset” value in data set [6] was 171.8 °C.

Take `CCOC(=O)[C@@H](N)CC(C)C.O=C(O)c1ccccc1O` [[LeuOEt][SA], L-leucine ethyl ester salicylate]: the “Level of IL-6 in LPS-stimulated HaCaT” value in data set [3] (1 µM) is given as “no effect or negligible inhibition of the IL-6 production”. The IC50 in data set [5] was 894 ± 12 µg/mL; in data set [5] (read-out: IC50 (in mM)), approximately 3 mM.
